The NIST ThermoML archive (doi:10.1021/je700350b)
± gives the expanded uncertainty stated by the source.

Assay: xn = mol fraction of the nth substance listed
Details: for viscosity: 101.33 kPa; for viscosity / binary diffusion coefficient: Liquid; for surface tension liquid-gas: Ring tensiometer; for binary diffusion coefficient: 101 kPa, Taylor dispersion method

CCN(CC)CCO [(diethylamino)ethanol] + O
Details	binary diffusion coefficient [m2/s]	surface tension liquid-gas [mN/m]	viscosity [mPa·s]
298.15 K, x1 = 0.1483	–	–	8.96 ± 0.14
298.15 K, x1 = 0.1603	–	–	9.677 ± 0.16
298.15 K, x1 = 0.1704	–	–	10.26 ± 0.17
298.15 K, x1 = 0.1905	–	–	11.31 ± 0.19
298.15 K, x1 = 0.2004	–	–	11.76 ± 0.2
298.15 K, x1 = 0.2104	–	–	12.22 ± 0.2
298.15 K, x1 = 0.22	–	–	12.66 ± 0.21
298.15 K, x1 = 0.2301	–	–	13.04 ± 0.22
298.15 K, x1 = 0.2401	–	–	13.42 ± 0.23
298.15 K, x1 = 0.253	–	–	13.84 ± 0.23
298.15 K, x1 = 0.2674	–	–	14.24 ± 0.24
298.15 K, x1 = 0.2701	–	–	14.25 ± 0.24
298.15 K, x1 = 0.2801	–	–	14.55 ± 0.25
298.15 K, x1 = 0.29	–	–	14.76 ± 0.25
298.15 K, x1 = 0.3022	–	–	14.98 ± 0.26
298.15 K, x1 = 0.35	–	–	15.43 ± 0.27
298.15 K, x1 = 0.3999	–	–	14.98 ± 0.26
298.15 K, x1 = 0.4507	–	–	14.58 ± 0.25
298.15 K, x1 = 0.5001	–	–	13.45 ± 0.23
298.15 K, x1 = 0.5504	–	–	12.29 ± 0.2
298.15 K, x1 = 0.6001	–	–	10.96 ± 0.18
298.15 K, x1 = 0.6514	–	–	9.672 ± 0.16
298.15 K, x1 = 0.7	–	–	8.576 ± 0.14
298.15 K, x1 = 0.7508	–	–	7.471 ± 0.12
298.15 K, x1 = 0.8001	–	–	6.597 ± 0.1
298.15 K, x1 = 0.8508	–	–	5.743 ± 0.09
298.15 K, x1 = 0.9001	–	–	5.063 ± 0.079
298.15 K, x1 = 0.9501	–	–	4.494 ± 0.07
298.15 K, x1 = 1	–	–	4.01 ± 0.062
303.15 K, x1 = 0.00104	–	60.06 ± 0.92	–
303.15 K, x1 = 0.00111	–	59.95 ± 0.92	–
303.15 K, x1 = 0.0013	–	59.24 ± 0.92	–
303.15 K, x1 = 0.00278	7.11e-10	–	–
303.15 K, x1 = 0.00336	–	51.86 ± 0.87	–
303.15 K, x1 = 0.00503	–	50.47 ± 0.72	–
303.15 K, x1 = 0.00524	6.5e-10	–	–
303.15 K, x1 = 0.00679	–	46.5 ± 0.67	–
303.15 K, x1 = 0.00781	6.39e-10	–	–
303.15 K, x1 = 0.01005	–	–	1.062 ± 0.016
303.15 K, x1 = 0.01032	5.82e-10	–	–
303.15 K, x1 = 0.01281	5.63e-10	–	–
303.15 K, x1 = 0.01536	5.39e-10	–	–
303.15 K, x1 = 0.01779	4.82e-10	–	–
303.15 K, x1 = 0.02016	–	–	1.333 ± 0.02
303.15 K, x1 = 0.02026	4.54e-10	–	–
303.15 K, x1 = 0.02372	–	39.92 ± 0.58	–
303.15 K, x1 = 0.02731	4.06e-10	–	–
303.15 K, x1 = 0.0382	3.14e-10	–	–
303.15 K, x1 = 0.03976	–	–	2.025 ± 0.031
303.15 K, x1 = 0.03998	–	35.96 ± 0.53	–
303.15 K, x1 = 0.05015	–	–	2.464 ± 0.038
303.15 K, x1 = 0.05024	2.55e-10	–	–
303.15 K, x1 = 0.06011	–	34.47 ± 0.51	–
303.15 K, x1 = 0.06028	–	–	2.899 ± 0.044
303.15 K, x1 = 0.07004	–	–	3.354 ± 0.051
303.15 K, x1 = 0.07276	–	33.87 ± 0.51	–
303.15 K, x1 = 0.07362	1.77e-10	–	–
303.15 K, x1 = 0.08051	–	–	3.86 ± 0.06
303.15 K, x1 = 0.08982	–	–	4.289 ± 0.066
303.15 K, x1 = 0.09846	1.53e-10	–	–
303.15 K, x1 = 0.11	–	–	5.269 ± 0.082
303.15 K, x1 = 0.12	–	–	5.728 ± 0.089
303.15 K, x1 = 0.1247	1.37e-10	–	–
303.15 K, x1 = 0.1253	–	32.48 ± 0.49	–
303.15 K, x1 = 0.1301	–	–	6.216 ± 0.097
303.15 K, x1 = 0.1401	–	–	6.673 ± 0.1
303.15 K, x1 = 0.1476	1.29e-10	–	–
303.15 K, x1 = 0.1511	–	–	7.151 ± 0.11
303.15 K, x1 = 0.1603	–	–	7.537 ± 0.12
303.15 K, x1 = 0.1704	–	–	7.965 ± 0.12
303.15 K, x1 = 0.1749	–	30.78 ± 0.46	–
303.15 K, x1 = 0.1801	1.32e-10	–	–
303.15 K, x1 = 0.1897	–	–	8.687 ± 0.14
303.15 K, x1 = 0.1998	–	–	9.003 ± 0.14
303.15 K, x1 = 0.2104	–	–	9.393 ± 0.15
303.15 K, x1 = 0.22	–	–	9.709 ± 0.15
303.15 K, x1 = 0.2301	–	–	9.979 ± 0.16
303.15 K, x1 = 0.2401	–	–	10.26 ± 0.17
303.15 K, x1 = 0.2498	–	–	10.48 ± 0.17
303.15 K, x1 = 0.2503	–	30.81 ± 0.47	–
303.15 K, x1 = 0.2674	–	–	10.84 ± 0.18
303.15 K, x1 = 0.2701	–	–	10.86 ± 0.18
303.15 K, x1 = 0.2801	–	–	11.05 ± 0.18
303.15 K, x1 = 0.29	–	–	11.21 ± 0.18
303.15 K, x1 = 0.3003	–	–	11.25 ± 0.18
303.15 K, x1 = 0.35	–	–	11.5 ± 0.19
303.15 K, x1 = 0.3515	–	29.72 ± 0.45	–
303.15 K, x1 = 0.3997	–	–	11.47 ± 0.19
303.15 K, x1 = 0.4018	–	29.34 ± 0.44	–
303.15 K, x1 = 0.433	–	–	11.12 ± 0.18
303.15 K, x1 = 0.4995	–	–	10.24 ± 0.17
303.15 K, x1 = 0.5038	–	29.22 ± 0.45	–
303.15 K, x1 = 0.5498	–	–	9.382 ± 0.15
303.15 K, x1 = 0.5997	–	–	8.485 ± 0.13
303.15 K, x1 = 0.608	–	28.83 ± 0.44	–
303.15 K, x1 = 0.6499	–	–	7.581 ± 0.12
303.15 K, x1 = 0.7001	–	–	6.746 ± 0.11
303.15 K, x1 = 0.712	–	28.65 ± 0.44	–
303.15 K, x1 = 0.7498	–	–	5.97 ± 0.093
303.15 K, x1 = 0.7503	–	28.3 ± 0.43	–
303.15 K, x1 = 0.8	–	–	5.299 ± 0.083
303.15 K, x1 = 0.8499	–	–	4.701 ± 0.073
303.15 K, x1 = 0.8542	–	27.91 ± 0.43	–
303.15 K, x1 = 0.9	–	–	4.196 ± 0.065
303.15 K, x1 = 0.95	–	–	3.742 ± 0.058
303.15 K, x1 = 1	–	27.2 ± 0.42	3.375 ± 0.052
